In article PMC8969894 (Journal of medicinal chemistry, 2021):
Where two headings read alike, the source gives them in different places.

Legend:
[1] = Metabolic stability in rat liver microsomes; format: in vitro ADME
[2] = In vivo pharmacokinetics in Sprague-Dawley rats; conditions: male, rat, ip, 10 mg/kg
[3] = tested on: Sprague-Dawley rats; test: Locomotor activity; format: in vivo, rat; conditions: 10 mg/kg i.p., 30 min, p > 0.05
[4] = tested on: panel of ~50 GPCRs (PDSP); conditions: 10 μM; any of the receptors of the panel
[5] = rat liver microsomes; cited from earlier work
[6] = Rat plasma protein binding; format: in vitro ADME
[7] = tested on: MDCK-MDR1 cells; conditions: cited from earlier work
[8] = Aqueous solubility; format: physicochemical; conditions: aqueous medium (not further specified)

## O=C(NCCc1cccc(C(F)(F)F)c1)Nc1ccc(Cl)cc1 [Compound 34, 3-(4-Chlorophenyl)-1-{2-[3-(trifluoromethyl)phenyl]ethyl}urea]
[1]
  %Qh (percentage of hepatic blood flow): 69.8%

## O=C(NCCc1cccc(Cl)c1)Nc1ccc(Cl)cc1 [Compound 31, 3-(4-Chlorophenyl)-1-[2-(3-chlorophenyl)ethyl]urea]
[2]; brain
  CL/F: 121 mL/min/kg
  half-life: 54 min
[2]; plasma
  half-life: 37.8 min
[3]
  locomotion: did not significantly affect locomotion
[4]
  inhibition at PDSP panel receptors: < 50 % inhibition

## Cc1cccc(CCNC(=O)Nc2ccc(Cl)cc2)c1 [Compound 17, 3-(4-Chlorophenyl)-1-[2-(3-methylphenyl)ethyl]urea]
[1]
  %Qh (percentage of hepatic blood flow): 72.2%

## O=C(Nc1ccc(Cl)cc1)Nc1cccc(-c2cccc(N3CCCC3)n2)c1 [Compound 2, 1-(4-chlorophenyl)-3-{3-[6-(pyrrolidin-1-yl)pyridin-2-yl]phenyl}urea]
[5]
  %Qh (percentage of hepatic blood flow): 72.6%
[6]
  fraction unbound: 0.001
[7]
  Efflux BA/AB: 0.8
  Papp (A-to-B): 2.6 ± 0 x10^−6 cm/s
  Papp (B-to-A): 2.2 ± 0.1 x10^−6 cm/s
[8]
  solubility: < 0.5 µM
